Source: the CheMixHub viscosity set
Values joined by “and” are separate entries in the source; they are usually repeats but may differ in a detail not shown here. Identical values can stand only once. ± gives the uncertainty stated by the source.

Test: xn = mol fraction of the nth substance listed

BrCCBr + c1ccccc1
101.33 kPa
Conditions	viscosity [mPa·s]
298.15 K, x1 = 0.0999	0.6395 ± 0.0075
298.15 K, x1 = 0.2016	0.6889 ± 0.008
298.15 K, x1 = 0.312	0.8229 ± 0.0095
298.15 K, x1 = 0.4109	0.8428 ± 0.0098
298.15 K, x1 = 0.5099	0.8941 ± 0.01
298.15 K, x1 = 0.6073	1.034 ± 0.012
298.15 K, x1 = 0.7101	1.116 ± 0.013
298.15 K, x1 = 0.8038	1.253 ± 0.014
298.15 K, x1 = 0.9005	1.422 ± 0.016
308.15 K, x1 = 0.1052	0.5588 ± 0.0066
308.15 K, x1 = 0.2078	0.6034 ± 0.0071
308.15 K, x1 = 0.3146	0.6379 ± 0.0075
308.15 K, x1 = 0.4086	0.7026 ± 0.0082
308.15 K, x1 = 0.5068	0.7767 ± 0.0091
308.15 K, x1 = 0.6088	0.8569 ± 0.01
308.15 K, x1 = 0.7019	0.961 ± 0.011
308.15 K, x1 = 0.8028	1.128 ± 0.013
308.15 K, x1 = 0.9019	1.219 ± 0.014

COc1ccccc1O + Cc1ccccc1
303.15 K, 101 kPa
Conditions	viscosity [mPa·s]
x2 = 0.1	3.17 ± 0.08
x2 = 0.2	2.47 ± 0.07
x2 = 0.3	1.83 ± 0.05
x2 = 0.4	1.5 ± 0.04
x2 = 0.5	1.2 ± 0.03
x2 = 0.6	0.981 ± 0.026
x2 = 0.7	0.815 ± 0.022
x2 = 0.8	0.7 ± 0.019
x2 = 0.9	0.599 ± 0.016

OCC(F)(F)F + O
Conditions	viscosity [mPa·s]
298 K, 101.3 kPa, x1 = 0.026	1.152 ± 0.031
298 K, 101.3 kPa, x1 = 0.0503	1.358 ± 0.035
298 K, 101.3 kPa, x1 = 0.075	1.528 ± 0.038
298 K, 101.3 kPa, x1 = 0.0984	1.634 ± 0.04
298 K, 101.3 kPa, x1 = 0.1984	1.882 ± 0.042
298 K, 101.3 kPa, x1 = 0.3016	1.876 ± 0.038
298 K, 101.3 kPa, x1 = 0.4012	1.819 ± 0.034
298 K, 101.3 kPa, x1 = 0.5015	1.757 ± 0.03
298 K, 101.3 kPa, x1 = 0.5993	1.713 ± 0.026
298 K, 101.3 kPa, x1 = 0.6501	1.656 ± 0.024
298 K, 101.3 kPa, x1 = 0.8029	1.651 ± 0.02
298 K, 101.3 kPa, x1 = 0.9024	1.673 ± 0.018
298.15 K, 100 kPa, x1 = 0.1022	1.608 ± 0.05
298.15 K, 100 kPa, x1 = 0.2084	1.828 ± 0.054
298.15 K, 100 kPa, x1 = 0.3227	1.802 ± 0.05
298.15 K, 100 kPa, x1 = 0.4087	1.743 ± 0.046
298.15 K, 100 kPa, x1 = 0.5727	1.665 ± 0.041
298.15 K, 100 kPa, x1 = 0.7111	1.621 ± 0.038
298.15 K, 100 kPa, x1 = 0.9104	1.64 ± 0.036
298.15 K, 101 kPa, x1 = 0.0196	1.061 ± 0.009
298.15 K, 101 kPa, x1 = 0.04313	1.271 ± 0.012
298.15 K, 101 kPa, x1 = 0.07168	1.446 ± 0.016
298.15 K, 101 kPa, x1 = 0.1072	1.642 ± 0.021
298.15 K, 101 kPa, x1 = 0.1525	1.773 ± 0.026
298.15 K, 101 kPa, x1 = 0.2128	1.852 ± 0.031
298.15 K, 101 kPa, x1 = 0.296	1.865 ± 0.036
298.15 K, 101 kPa, x1 = 0.4193	1.782 ± 0.038
298.15 K, 101 kPa, x1 = 0.6192	1.667 ± 0.04
303 K, 101.3 kPa, x1 = 0.026	0.999 ± 0.027
303 K, 101.3 kPa, x1 = 0.0503	1.163 ± 0.03
303 K, 101.3 kPa, x1 = 0.075	1.312 ± 0.033
303 K, 101.3 kPa, x1 = 0.0984	1.395 ± 0.035
303 K, 101.3 kPa, x1 = 0.1984	1.588 ± 0.036
303 K, 101.3 kPa, x1 = 0.3016	1.609 ± 0.033
303 K, 101.3 kPa, x1 = 0.4012	1.566 ± 0.03
303 K, 101.3 kPa, x1 = 0.5015	1.523 ± 0.026
303 K, 101.3 kPa, x1 = 0.5993	1.492 ± 0.023
303 K, 101.3 kPa, x1 = 0.6501	1.45 ± 0.022
303 K, 101.3 kPa, x1 = 0.8029	1.444 ± 0.018
303 K, 101.3 kPa, x1 = 0.9024	1.468 ± 0.016
308 K, 101.3 kPa, x1 = 0.026	0.887 ± 0.024
308 K, 101.3 kPa, x1 = 0.0503	1.017 ± 0.027
308 K, 101.3 kPa, x1 = 0.075	1.138 ± 0.029
308 K, 101.3 kPa, x1 = 0.0984	1.214 ± 0.03
308 K, 101.3 kPa, x1 = 0.1984	1.398 ± 0.032
308 K, 101.3 kPa, x1 = 0.3016	1.406 ± 0.03
308 K, 101.3 kPa, x1 = 0.4012	1.375 ± 0.027
308 K, 101.3 kPa, x1 = 0.5015	1.338 ± 0.024
308 K, 101.3 kPa, x1 = 0.5993	1.305 ± 0.021
308 K, 101.3 kPa, x1 = 0.6501	1.284 ± 0.02
308 K, 101.3 kPa, x1 = 0.8029	1.278 ± 0.017
308 K, 101.3 kPa, x1 = 0.9024	1.296 ± 0.015
313 K, 101.3 kPa, x1 = 0.026	0.791 ± 0.022
313 K, 101.3 kPa, x1 = 0.0503	0.899 ± 0.024
313 K, 101.3 kPa, x1 = 0.075	1.002 ± 0.026
313 K, 101.3 kPa, x1 = 0.0984	1.065 ± 0.027
313 K, 101.3 kPa, x1 = 0.1984	1.223 ± 0.028
313 K, 101.3 kPa, x1 = 0.3016	1.235 ± 0.026
313 K, 101.3 kPa, x1 = 0.4012	1.211 ± 0.024
313 K, 101.3 kPa, x1 = 0.5015	1.179 ± 0.021
313 K, 101.3 kPa, x1 = 0.5993	1.159 ± 0.019
313 K, 101.3 kPa, x1 = 0.6501	1.145 ± 0.018
313 K, 101.3 kPa, x1 = 0.8029	1.136 ± 0.016
313 K, 101.3 kPa, x1 = 0.9024	1.152 ± 0.014
323.15 K, 100 kPa, x1 = 0.1022	0.85 ± 0.027
323.15 K, 100 kPa, x1 = 0.2084	0.944 ± 0.028
323.15 K, 100 kPa, x1 = 0.3227	0.949 ± 0.027
323.15 K, 100 kPa, x1 = 0.4087	0.94 ± 0.025
323.15 K, 100 kPa, x1 = 0.5727	0.911 ± 0.023
323.15 K, 100 kPa, x1 = 0.7111	0.912 ± 0.022
323.15 K, 100 kPa, x1 = 0.9104	0.935 ± 0.021

F.[F-].[Na+] + O
viscosity [mPa·s], 100 kPa
Conditions	x1 = 0.003	x1 = 0.006	x1 = 0.009
298.15 K	0.939 ± 0.028	0.9963 ± 0.03	1.068 ± 0.032
323.15 K	0.578 ± 0.017	0.61 ± 0.018	0.657 ± 0.02

O=C[C@H](O)[C@@H](O)[C@H](O)CO + O
viscosity, 101 kPa
Conditions	x1 = 0.000546	x1 = 0.0009	x1 = 0.00124	x1 = 0.0031	x1 = 0.006	x1 = 0.0063	x1 = 0.013
293.15 K	–	–	–	1.053 ± 0.013 mPa·s	1.118 ± 0.024 mPa·s and 1.118 ± 0.014 mPa·s (2×)	1.118 ± 0.014 mPa·s	1.229 ± 0.026 mPa·s and 1.229 ± 0.015 mPa·s and 1.229 ± 0.016 mPa·s
298.15 K	0.9164 ± 0.013 mPa·s	0.9244 ± 0.013 mPa·s	0.9306 ± 0.013 mPa·s	–	0.9937 ± 0.021 mPa·s and 0.9937 ± 0.012 mPa·s and 0.9937 ± 0.013 mPa·s	0.9937 ± 0.013 mPa·s	–
303.15 K	–	–	–	0.8381 ± 0.01 mPa·s	0.8889 ± 0.019 mPa·s and 0.8889 ± 0.011 mPa·s (2×)	0.8889 ± 0.011 mPa·s	0.986 ± 0.021 mPa·s and 0.986 ± 0.012 mPa·s and 0.986 ± 0.013 mPa·s
308.15 K	–	–	–	0.7529 ± 0.0094 mPa·s	0.7916 ± 0.017 mPa·s and 0.7916 ± 0.0098 mPa·s and 0.7916 ± 0.01 mPa·s	0.7916 ± 0.0099 mPa·s	0.8843 ± 0.019 mPa·s and 0.8843 ± 0.011 mPa·s (2×)
313.15 K	–	–	–	0.683 ± 0.0085 mPa·s	0.7163 ± 0.015 mPa·s and 0.7163 ± 0.0088 mPa·s and 0.7163 ± 0.0091 mPa·s	0.7163 ± 0.009 mPa·s	0.798 ± 0.017 mPa·s and 0.798 ± 0.0099 mPa·s and 0.798 ± 0.01 mPa·s
318.15 K	–	–	–	–	0.6565 ± 0.014 mPa·s and 0.6565 ± 0.0081 mPa·s and 0.6565 ± 0.0084 mPa·s	0.6565 ± 0.0082 mPa·s	0.7216 ± 0.015 mPa·s and 0.7216 ± 0.0089 mPa·s and 0.7216 ± 0.0092 mPa·s

Brc1ccccc1 + Cc1ccc(C)cc1
101 kPa
Conditions	viscosity [mPa·s]
293.15 K, x1 = 0.1123	0.645 ± 0.012
293.15 K, x1 = 0.225	0.695 ± 0.012
293.15 K, x1 = 0.3321	0.746 ± 0.013
293.15 K, x1 = 0.4327	0.795 ± 0.014
293.15 K, x1 = 0.5301	0.845 ± 0.015
293.15 K, x1 = 0.6412	0.897 ± 0.015
293.15 K, x1 = 0.7553	0.95 ± 0.016
293.15 K, x1 = 0.9107	1.018 ± 0.017
298.15 K, x1 = 0.1121	0.61 ± 0.011
298.15 K, x1 = 0.2263	0.658 ± 0.012
298.15 K, x1 = 0.3316	0.701 ± 0.012
298.15 K, x1 = 0.4646	0.758 ± 0.013
298.15 K, x1 = 0.5298	0.785 ± 0.014
298.15 K, x1 = 0.6418	0.835 ± 0.014
298.15 K, x1 = 0.755	0.895 ± 0.015
298.15 K, x1 = 0.9101	0.955 ± 0.016
303.15 K, x1 = 0.1154	0.575 ± 0.011
303.15 K, x1 = 0.22	0.615 ± 0.011
303.15 K, x1 = 0.3355	0.657 ± 0.012
303.15 K, x1 = 0.4366	0.7 ± 0.012
303.15 K, x1 = 0.5593	0.75 ± 0.013
303.15 K, x1 = 0.6816	0.799 ± 0.014
303.15 K, x1 = 0.7723	0.835 ± 0.015
303.15 K, x1 = 0.9149	0.891 ± 0.015

COC(=O)CC(=O)OC + CCO
303.15 K, 101 kPa
Conditions	viscosity [mPa·s]
x1 = 0.0532	0.972 ± 0.0096
x1 = 0.1129	0.966 ± 0.0095
x1 = 0.1787	0.978 ± 0.0096
x1 = 0.2533	0.998 ± 0.0098
x1 = 0.337	1.037 ± 0.01
x1 = 0.4329	1.097 ± 0.011
x1 = 0.5426	1.181 ± 0.011
x1 = 0.6705	1.314 ± 0.013
x1 = 0.8207	1.513 ± 0.015

CC(C)N + O=C1CCCCC1
298.15 K, 101 kPa
Conditions	viscosity [mPa·s]
x2 = 0.0627	0.41 ± 0.011
x2 = 0.1309	0.604 ± 0.015
x2 = 0.2051	0.844 ± 0.019
x2 = 0.2865	1.135 ± 0.024
x2 = 0.3759	1.498 ± 0.029
x2 = 0.4746	1.904 ± 0.033
x2 = 0.5842	2.083 ± 0.032
x2 = 0.7067	2.162 ± 0.028
x2 = 0.8442	2.051 ± 0.023
